Data as given in article PMC9841431 (Nucleic Acids Research, 2022).
Converted amounts (≈) assume the structure as drawn. Read-outs that look alike come from different tables or passages of the source.

Key:
[1] = tested on: M. tuberculosis H37Rv; experiment: microbe, parasite or virus in culture; assay type: cell-based; conditions: for MIC / MIC90: Mycobacterium tuberculosis, H37RV, read-out: M. tuberculosis MIC90
[2] = tested on: M. bovis BCG cultures; assay type: cell-based, Mycobacterium bovis BCG
[3] = tested on: M. tuberculosis H37Rv in infected mouse Bone Marrow-Derived Macrophages; assay type: cell-based, Mycobacterium tuberculosis; conditions: BMDM; for Reduction of the burden of intracellular bacteria: 32 × MIC
[4] = tested on: Vero cells; conditions: CC50 (Vero) / MIC90 (replicating M. tuberculosis H37Rv)
[5] = in vitro; conditions: African green monkey, VERO cells CC50, 72 h exposure, ATP readout
[6] = tested on: non-replicating M. tuberculosis H37Rv; assay type: cell-based, Mycobacterium tuberculosis; conditions: MBC90 NR / MIC90 replicating
[7] = molecular target: Mrx2WT (Mycobacterium tuberculosis, UniProt O53193); experiment: Mrx2 enzyme kinetic assay; assay type: biochemical, M. tuberculosis; conditions: 10 μM compound, 30 μM enzyme, absorbance at 412 nm
Chain of Mrx2WT (O53193 whole entry): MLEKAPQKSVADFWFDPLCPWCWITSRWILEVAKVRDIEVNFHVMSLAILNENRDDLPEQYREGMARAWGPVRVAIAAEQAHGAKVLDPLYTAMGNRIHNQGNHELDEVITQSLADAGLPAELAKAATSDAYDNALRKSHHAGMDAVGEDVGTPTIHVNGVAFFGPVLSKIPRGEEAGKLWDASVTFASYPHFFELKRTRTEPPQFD

[8] = tested on: Mrx2 mutants; assay type: biochemical, M. tuberculosis; conditions: enzyme kinetic assay
[9] = tested on: sigH and mrx2 expression in M. tuberculosis H37Rv; experiment: sigH and mrx2 transcriptional levels by qRT-PCR upon compound exposure; assay type: cell-based, Mycobacterium tuberculosis; conditions: 1×, 2×, 4×, 8× MIC90; different time points

Q: Which results are given for “1-Butyl-2-nitronaphtho[2,1-b]furan [nNF-C11]”?
A: MIC90 R[…]. tuberculosis μM (median) ([1]; REMA, H37Rv, median): 32.89 µM; MIC90 R[…]. tuberculosis μg/ml (median) ([1]; REMA, H37Rv, median): 8 µg/mL; MIC90 R[…]. tuberculosis μg/ml (range) ([1]; REMA, H37Rv, range): 8 to 16 µg/mL; M. tuberculosis MIC90 ([1]; value used for SI in Table 2): 8 µg/mL

Q: Which “NO release in treated M. bovis BCG cultures” value (shortened to “NO release”) [2] does the source give for `O=[N+]([O-])c1cn2c(n1)OC[C@@H](OCc1ccc(OC(F)(F)F)cc1)C2` [PA-824, Pretomanid, reference compound] here?
A: significant NO release in a concentration dependent manner

Q: What does the source list for `CO[C@H]1/C=C/O[C@@]2(C)Oc3c(C)c(O)c4c(O)c(c(/C=N/N5CCN(C)CC5)c(O)c4c3C2=O)NC(=O)/C(C)=C\C=C\[C@H](C)[C@H](O)[C@@H](C)[C@@H](O)[C@@H](C)[C@H](OC(C)=O)[C@@H]1C` [RIF, Rifampicin, reference compound]?
A: MIC [1]: 0.01 µg/mL (≈ 0.0122 µM); Concentration needed to achieve a similar level (ca. 2 logs) of intracellular killing ([3]; 32 times its MIC): 0.32 μg/ml; Selectivity index (SI) [4]: 7824.1; CC50 [5]: 78.2 µg/mL (≈ 95 µM)

Q: For `O=[N+]([O-])c1cc2c(ccc3c2ccc2cc([N+](=O)[O-])oc23)o1` [nNF-C1, 2,7-dinitronaphtho[1,2-b:6,5-b']difuran], which MIC90 [1] is on record?
A: 0.125 µg/mL (≈ 0.419 µM)

Q: For `O=[N+]([O-])c1cc2cc3ccc4oc([N+](=O)[O-])cc4c3cc2o1` [nNF-C2, 2,8-Dinitronaphtho[2,1-b:7,6-b']difuran], which MIC90 [1] is on record?
A: 0.0625 µg/mL (≈ 0.21 µM)

Q: And the “Activity against non-replicating M. tuberculosis in the charcoal assay relative to MIC90 against replicating bacteria” value [6]?
A: 4–8 times

Q: And the “Reduction of the number of intracellular M. tuberculosis bacteria” value ([3]; 4 times of MIC90 (0.25 μg/ml))?
A: ca. 2 logs

Q: What about the “Reduction of the burden of intracellular bacteria” value [3] of the same molecule?
A: more than 4 logs

Q: What about the “Metabolism of the compound by Mrx2WT” value [7] of the same molecule?
A: completely metabolized

Q: And the “Activity of Mrx2T25R, Mrx2S46R, Mrx2Y91S, Mrx2H140D and Mrx2R198G against the compound” value [8]?
A: only residual activity

Q: And the “NO release” value [2]?
A: significant NO release in a concentration dependent manner

Q: What about the “Induction of sigH and mrx2 expression” value [9] of the same molecule?
A: time and concentration-dependant induction of both genes

Q: For `O=[N+]([O-])c1cc2c(ccc3c4cc([N+](=O)[O-])oc4ccc23)o1` [nNF-C3, 2,7-Dinitronaphtho[2,1-b:6,5-b']difuran], which MIC [1] is on record?
A: 1 µg/mL (≈ 3.35 µM)

Q: For `COC(=O)c1ccc2c(ccc3oc([N+](=O)[O-])cc32)c1` [nNF-C4, Methyl 2-nitronaphtho[2,1-b]furan-7-carboxylate], which MIC90 [1] is on record?
A: 0.125 µg/mL (≈ 0.461 µM)

Q: And the “Activity against non-replicating M. tuberculosis in the charcoal assay relative to MIC90 against replicating bacteria” value [6]?
A: 4–8 times

Q: And the “Reduction of the number of intracellular M. tuberculosis bacteria” value ([3]; 2 times of MIC90 (0.25 μg/ml))?
A: ca. 2 logs

Q: And the “Reduction of the burden of intracellular bacteria” value [3]?
A: more than 4 logs

Q: And the “NO release” value [2]?
A: significant NO release in a concentration dependent manner

Q: What about the “Nitrite levels relative to nNF-C2” value [2] of the same molecule?
A: ~4 times

Q: Which MIC90 [1] does the source give for `N#Cc1ccc2c(ccc3oc([N+](=O)[O-])cc32)c1` [nNF-C5, 2-Nitronaphtho[2,1-b]furan-7-carbonitrile] here?
A: 0.25 µg/mL (≈ 1.05 µM)

Q: And the CC50 [5]?
A: 12.5 µg/mL (≈ 52.5 µM)

Q: With `O=[N+]([O-])c1cc2c(ccc3cc(Br)ccc32)o1` [nNF-C6, 7-Bromo-2-nitronaphtho[2,1-b]furan] as the molecule, how does the MIC90 [1] read?
A: 0.5 µg/mL (≈ 1.71 µM)

Q: What about the “Selectivity index (SI)” value [4] of the same molecule?
A: 182.6

Q: Which results are given for `COc1ccc2c(ccc3oc([N+](=O)[O-])c(C)c32)c1` [nNF-C7, 7-Methoxy-1-methyl-2-nitronaphtho[2,1-b]furan]?
A: MIC90 [1]: 4 µg/mL (≈ 15.5 µM); CC50 [5]: 67.5 µg/mL (≈ 262 µM)

Q: What does the source list for `COc1cc2ccc3oc([N+](=O)[O-])cc3c2cc1OC` [nNF-C8, 7,8-Dimethoxy-2-nitronaphtho[2,1-b]furan]?
A: MIC90 [1]: 0.125 µg/mL (≈ 0.457 µM); CC50 [5]: 0.4 µg/mL (≈ 1.46 µM)

Q: With `CCCCc1c([N+](=O)[O-])oc2ccc3ccccc3c12` [nNF-C12, 1-Butyl-2-nitronaphtho[2,1-b]furan] as the molecule, how does the MIC90 [1] read?
A: 4 µg/mL (≈ 14.9 µM)

Q: And the CC50 [5]?
A: 73.5 µg/mL (≈ 273 µM)

Q: For `Cc1c([N+](=O)[O-])oc2ccc3ccccc3c12` [nNF-C14, 1-Methyl-2-nitronaphtho[2,1-b]furan], which MIC90 [1] is on record?
A: 2 µg/mL (≈ 8.8 µM)

Q: What about the “Selectivity index (SI)” value [4] of the same molecule?
A: >50

Q: For `COc1ccc2c(ccc3oc([N+](=O)[O-])cc32)c1` [nNF-C16, 7-Methoxy-2-nitronaphtho[2,1-b]furan], which MIC90 [1] is on record?
A: 0.0625 µg/mL (≈ 0.257 µM)

Q: What about the CC50 [5] of the same molecule?
A: 0.3 µg/mL (≈ 1.23 µM)

Q: Which MIC90 [1] does the source give for `CCc1c([N+](=O)[O-])oc2ccc3ccccc3c12` [nNF-C17, 1-Ethyl-2-nitronaphtho[2,1-b]furan] here?
A: 2 µg/mL (≈ 8.29 µM)

Q: What about the CC50 [5] of the same molecule?
A: 55.1 µg/mL (≈ 228 µM)

Q: For `COc1ccc2ccc3oc([N+](=O)[O-])cc3c2c1Br` [nNF-C18, 9-Bromo-8-methoxy-2-nitronaphtho[2,1-b]furan], which MIC90 [1] is on record?
A: 0.25 µg/mL (≈ 0.776 µM)

Q: And the CC50 [5]?
A: 2.2 µg/mL (≈ 6.83 µM)

Q: For `CCOC(=O)COc1ccc2ccc3oc([N+](=O)[O-])cc3c2c1` [nNF-C20, Ethyl 2-({2-nitronaphtho[2,1-b]furan-8-yl}oxy)acetate], which MIC [1] is on record?
A: 0.25 µg/mL (≈ 0.793 µM)

Q: What about the CC50 [5] of the same molecule?
A: 9.3 µg/mL (≈ 29.5 µM)
